The values that follow are results of earlier work, collected in patent publication US10471156B2, “Pharmaceutical composition comprising amorphous lenalidomide” (SYNTHON B.V., priority 2014, dated 2019).

As for 2-hydroxypropyl-β-cyclodextrin, under “water”, the aqueous solubility result is recorded as “exceeding 600 mg/ml”. Take `Nc1cccc2c1CN(C1CCC(=O)NC1=O)C2=O` (racemic) [Lenalidomide, (RS)-3-(4-Amino-1-oxo 1,3-dihydro-2H-isoindol-2-yl)piperidine-2,6-dione]: the solubility in water result was “slightly soluble”.
